Results from US5958940A, “Tricyclic compounds useful as inhibitors of farnesyl-protein transferase” (Schering Corporation, priority 1997, dated 1999).

Target: T1, farnesyl protein transferase (Rattus norvegicus, UniProt Q02293+Q04631)
T1 construct: partially purified rat brain farnesyl protein transferase (FPT); from tissue; host or cells: rat brain, partially purified
Test: FPT inhibition, in vitro enzyme assay (Ras-CVLS farnesylation by partially purified rat brain FPT)
Assay type: biochemical

inhibition at 0.3 µM (@0.3 μM) | inhibition at 0.1 µM (@0.1 μM) | SMILES
15% |  | O=C(NCc1cccnc1)[C@@H]1CCCN1C1c2ncc(Br)cc2CCc2cc(Cl)cc(Br)c21 (single isomer, unassigned) [Example 2 Isomer A, 1-(3,10-dibromo-8-chloro-6,11-dihydro-5H-benzo[5,6]cyclohepta[1,2-b]pyridine-11-yl)-N-(3-pyridinylmethyl)-2-pyrrolidine carboxamide]
 | 17% | O=C(NCc1cccnc1)[C@@H]1CCN1C1c2ccc(Cl)cc2CCc2cc(Br)cnc21 (single isomer, unassigned) [Example 3 Isomer B, 1-(3-bromo-8-chloro-6,11-dihydro-5H-benzo[5,6]cyclohepta[1,2-b]pyridine-11-yl)-N-(3-pyridinylmethyl)2-azetidine carboxamide]
